Structures can show the parent of a compound that is named as a salt. Where two headings read alike, the source gives them in different places.
What was measured:
[1] = system: mono-methyl arginine in RKO cells; assay: RKO Methylation Assay, In Cell Western (ICW) for mono-methyl arginine and DNA content; assay type: cell-based; details: Homo sapiens, RKO, 72 h
Text: RKO adherent cells were purchased from ATCC (American Type Culture Collection), Manassas, Va., USA. DMEM/Glutamax medium, penicillin-streptomycin, heat inactivated fetal bovine serum, 0.05% trypsin and D-PBS were purchased from Life Technologies, Grand Island, N.Y., USA. Odyssey blocking buffer, 800CW goat anti-rabbit IgG (H+L) antibody, and Licor Odyssey infrared scanner were purchased from Licor Biosciences, Lincoln, Nebr., USA. Mono-methyl arginine antibody was purchased from Cell Signaling Technology, Danvers, Mass., USA. Methanol was purchased from VWR, Franklin, Mass., USA. 10% Tween 20 was purchased from KPL, Inc., Gaithersburg, Md., USA. DRAQ5 was purchased from Biostatus Limited, Leicestershire, UK.
RKO adherent cells were maintained in growth medium (DMEM/Glutamax medium supplemented with 10% v/v heat inactivated fetal bovine serum and 100 units/mL penicillin-streptomycin) and cultured at 37° C. under 5% CO2.
Cell Treatment, in Cell Western (ICW) for Detection of Mono-Methyl Arginine and DNA Content.
RKO cells were seeded in assay medium at a concentration of 20,000 cells per mL to a poly-D-lysine coated 384 well culture plate (BD Biosciences 356697) with 50 μL per well. Compound (100 nL) from a 96-well source plate was added directly to 384 well cell plate. Plates were incubated at 37° C., 5% CO2 for 72 hours. After three days of incubation, plates were brought to room temperature outside of the incubator for ten minutes and blotted on paper towels to remove cell media. 50 μL of ice cold 100% methanol was added directly to each well and incubated for 30 min at room temperature. After 30 min, plates were transferred to a Biotek EL406 plate washer and washed 2 times with 100 μL per well of wash buffer (1×PBS). Next 60 μL per well of Odyssey blocking buffer (Odyssey Buffer with 0.1% Tween 20 (v/v)) were added to each plate and incubated 1 hour at room temperature. Blocking buffer was removed and 20 μL per well of primary antibody was added (mono-methyl arginine diluted 1:200 in Odyssey buffer with 0.1% Tween 20 (v/v)) and plates were incubated overnight (16 hours) at 4° C. Plates were washed 5 times with 100 μL per well of wash buffer. Next 20 μL per well of secondary antibody was added (1:200 800CW goat anti-rabbit IgG (H+L) antibody, 1:1000 DRAQ5 (Biostatus limited) in Odyssey buffer with 0.1% Tween 20 (v/v)) and incubated for 1 hour at room temperature. The plates were washed 5 times with 100 μL per well wash buffer then 2 times with 100 μL per well of water. Plates were allowed to dry at room temperature then imaged on the Licor Odyssey machine which measures integrated intensity at 700 nm and 800 nm wavelengths. Both 700 and 800 channels were scanned.
First, the ratio for each well was determined by:
Each plate included fourteen control wells of DMSO only treatment (minimum activation) as well as fourteen control wells for maximum activation treated with 20 μM of a reference compound. The average of the ratio values for each control type was calculated and used to determine the percent activation for each test well in the plate. Reference compound was serially diluted three-fold in DMSO for a total of nine test concentrations, beginning at 20 μM. Percent activation was determined and EC30 curves were generated using triplicate wells per concentration of compound.

human PRMT1 = target: T1, human PRMT1 (Homo sapiens, UniProt Q99873); assay: PRMT1 Biochemical Assay (3H-SAM Flashplate, peptide substrate)
T1 construct: GST-tagged PRMT1; made in house; host or cells: High Five insect cells (baculovirus)
Text: S-adenosylmethionine (SAM), S-adenosylhomocysteine (SAH), bicine, Tween20, dimethylsulfoxide (DMSO), bovine skin gelatin (BSG), and Tris(2-carboxyethyl)phosphine hydrochloride solution (TCEP) were purchased from Sigma-Aldrich at the highest level of purity possible. ^3H-SAM was purchase from American Radiolabeled Chemicals with a specific activity of 80 Ci/mmol. 384-well streptavidin Flashplates were purchased from PerkinElmer.
Recombinant baculovirus were generated according to Bac-to-Bac kit instructions (Life Technologies). […] Infections were carried out at 27° C. for 48 hours, harvested by centrifugation, and stored at −80° C. for purification.
GST-tagged PRMT1 was eluted with 50 mM Tris, 2 mM glutathione, pH 7.8, dialysed in buffer A and concentrated to 1 mg/mL.
General Procedure for PRMT1 Enzyme Assays on Peptide Substrates.
The assays were all performed in a buffer consisting of 20 mM Bicine (pH=7.6), 1 mM TCEP, 0.005% BSG, and 0.002% Tween 20, prepared on the day of use. […] DMSO (1 ul) was added to Columns 11, 12, 23, 24, rows A-H for the maximum signal control and 1 ul of SAH, a known product and inhibitor of PRMT1, was added to columns 11, 12, 23, 24, rows I-P for the minimum signal control. A cocktail (40 ul) containing the PRMT1 enzyme was added by Multidrop Combi (Thermo-Fisher). The compounds were allowed to incubate with PRMT1 for 30 min at room temperature, then a cocktail (10 ul) containing SAM and peptide was added to initiate the reaction (final volume=51 ul). […] The assays were stopped by the addition of non-radiolabeled SAM (10 ul) to a final concentration of 300 uM, which dilutes the ^3H-SAM to a level where its incorporation into the peptide substrate is no longer detectable. 50 ul of the reaction in the 384-well polypropylene plate was then transferred to a 384-well Flashplate and the biotinylated peptides were allowed to bind to the streptavidin surface for at least 1 hour before being washed once with 0.1% Tween20 in a Biotek ELx405 plate washer. The plates were then read in a PerkinElmer TopCount plate reader to measure the quantity of ^3H-labeled peptide bound to the Flashplate surface, measured as disintegrations per minute (dpm) or alternatively, referred to as counts per minute (cpm).
Where dpm=disintegrations per minute, cmpd=signal in assay well, and min and max are the respective minimum and maximum signal controls.
Where top and bottom are the normally allowed to float, but may be fixed at 100 or 0 respectively in a 3-parameter fit. The Hill Coefficient normally allowed to float but may also be fixed at 1 in a 3-parameter fit. Y is the % inhibition and X is the compound concentration.

[2] = RKO cells, 72 hours, mono-methyl arginine, percent activation, single experiment or average of multiple experiments, read-out: EC30 (In Cell Western data, Numerical)
[3] = single experiment or average of multiple experiments
[4] = read-out: EC30 (In Cell Western data, Numerical, μM)

T1 sequence (Q99873 with tags, fused parts or gaps): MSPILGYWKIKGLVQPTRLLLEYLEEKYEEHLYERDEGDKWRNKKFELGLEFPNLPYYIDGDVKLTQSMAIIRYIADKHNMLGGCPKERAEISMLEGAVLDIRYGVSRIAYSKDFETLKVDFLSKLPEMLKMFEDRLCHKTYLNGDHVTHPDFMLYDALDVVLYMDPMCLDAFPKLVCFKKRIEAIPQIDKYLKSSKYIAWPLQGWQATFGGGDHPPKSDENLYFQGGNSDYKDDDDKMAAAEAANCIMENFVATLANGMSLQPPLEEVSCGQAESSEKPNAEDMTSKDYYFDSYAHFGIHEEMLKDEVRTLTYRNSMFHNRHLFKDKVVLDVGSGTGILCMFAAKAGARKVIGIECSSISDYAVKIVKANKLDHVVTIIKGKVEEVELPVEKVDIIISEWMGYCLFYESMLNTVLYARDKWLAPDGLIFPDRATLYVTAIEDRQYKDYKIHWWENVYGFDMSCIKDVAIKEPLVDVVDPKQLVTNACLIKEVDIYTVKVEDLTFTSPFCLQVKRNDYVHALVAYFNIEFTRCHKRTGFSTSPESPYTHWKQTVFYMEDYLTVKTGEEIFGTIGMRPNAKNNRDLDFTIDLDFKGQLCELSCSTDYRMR

SMILES	IC50 (human PRMT1; [3])	EC30 [1, 2]	EC30 [1, 4]	EC30 ([1]; read-out: EC30 (In Cell Western data))	IC50 (human PRMT1)
COCCn1ncc(CN(C)CCN)c1-c1ccc(F)cc1 [Compound 6]	3.46 µM	> 20 µM	–	–	–
CCn1ncc(CN(C)CCNC)c1-c1ccc(F)cc1 [Compound 7]	0.265 µM	5.76 µM	–	–	–
CCn1cc(CN(C)CCNC)c(-c2ccc(F)cc2)n1 [Compound 8]	1.18 µM	> 20 µM	–	–	–
CN(CCN)Cc1c[nH]nc1-c1ccc(OCC(F)(F)F)cc1 [Compound 96]	0.00441 µM	0.92 µM	–	–	–
CC(C)Oc1ccc(-c2n[nH]cc2CN(C)CCN)cc1F [Compound 97]	0.0026 µM	–	0.184 µM	–	–
CN(CCN)Cc1c[nH]nc1-c1ccc(C2CCOCC2)cc1 [Compound 98]	0.00584 µM	2.85 µM	–	–	–
CN(CCN)Cc1c[nH]nc1-c1ccc(F)cc1F [Compound 99]	0.0902 µM	11.8 µM	–	–	–
CN(CCN)Cc1n[nH]cc1-c1ccc(C#N)cc1 [Compound 100]	0.012 µM	2.98 µM	–	–	–
CC(C)c1ccc(-c2c[nH]nc2CN(C)CCN)cc1 [Compound 101]	0.0203 µM	–	5.99 µM	–	–
CN(CCN)Cc1n[nH]cc1-c1ccc(Cl)cc1 [Compound 102]	0.0113 µM	2.32 µM	–	–	–
CN(CCN)Cc1n[nH]cc1-c1ccc(C(F)(F)F)cc1 [Compound 103]	0.0102 µM	3.67 µM	–	–	–
CN(CCN)Cc1n[nH]cc1-c1ccc(C2CC2)cc1 [Compound 104]	0.0157 µM	3.92 µM	–	–	–
CN(CCN)Cc1n[nH]cc1-c1ccc(OC(F)(F)F)cc1 [Compound 105]	0.00885 µM	2.28 µM	–	–	–
COc1ccc(-c2n[nH]cc2CN(C)CCN)c(F)c1 [Compound 107]	0.0441 µM	–	–	–	–
Cc1ccc(-c2n[nH]cc2CN(C)CCN)c(F)c1 [Compound 108]	0.0313 µM	–	–	–	–
COc1ccccc1-c1n[nH]cc1CN(C)CCN [Compound 109]	0.244 µM	–	–	–	–
Cc1cc(C#N)ccc1-c1n[nH]cc1CN(C)CCN [Compound 110]	0.0216 µM	–	–	–	–
COc1ccc(-c2n[nH]cc2CN(C)CCN)cc1Cl [Compound 125]	0.00838 µM	–	1.57 µM	–	–
CN(CCN)Cc1c[nH]nc1-c1ccc(Cl)cc1F [Compound 132]	0.0239 µM	–	2.4 µM	–	–
CNCCN(C)Cc1cnn(C)c1-c1ccc(OC(C)C)cc1 [Compound 244, hydrochloride]	0.00868 µM	–	0.142 µM	< 3 µM	< 0.1 µM

Second part, led by results:

IC50 (human PRMT1; [3])	SMILES	EC30 [1, 2]	EC30 [1, 4]	EC30 ([1]; read-out: EC30 (In Cell Western data))	IC50 (human PRMT1)
0.0189 µM	CN(CCN)Cc1c[nH]nc1-c1cc(F)cc(F)c1 [Compound 111]	–	–	–	–
0.081 µM	CC(=O)c1cccc(-c2n[nH]cc2CN(C)CCN)c1 [Compound 112]	–	–	–	–
0.00575 µM	CN(CCN)Cc1c[nH]nc1-c1ccc(OC2CC2)cc1 [Compound 114]	0.607 µM	–	–	–
0.046 µM	CC(O)c1ccc(-c2n[nH]cc2CN(C)CCN)cc1 (stereo not shown) [Compound 115]	–	–	–	–
0.00484 µM	CN(CCN)Cc1c[nH]nc1-c1ccc(C2CC2)cc1 [Compound 116]	1.41 µM	–	–	–
0.00576 µM	CN(CCN)Cc1c[nH]nc1-c1ccc(C(F)(F)F)c(Cl)c1 [Compound 117]	1.29 µM	–	–	–
0.00294 µM	CN(CCN)Cc1c[nH]nc1-c1ccc(Cl)c(F)c1 [Compound 118]	0.314 µM	–	–	–
0.0162 µM	CN(CCN)Cc1n[nH]cc1-c1ccc(OC2CC2)cc1 [Compound 119]	4.54 µM	–	–	–
0.0107 µM	CN(CCN)Cc1c[nH]nc1-c1cc(F)cc(Cl)c1 [Compound 121]	2.07 µM	–	–	–
0.0243 µM	CN(CCN)Cc1c[nH]nc1-c1cccc(Cl)c1 [Compound 122]	3.48 µM	–	–	–
0.0439 µM	CN(CCN)Cc1c[nH]nc1-c1cccc(Cl)c1F [Compound 123]	2.96 µM	–	–	–
0.0137 µM	CN(CCN)Cc1c[nH]nc1-c1ccc(F)c(Cl)c1 [Compound 124]	1.23 µM	–	–	–
0.00681 µM	Cc1ccc(-c2n[nH]cc2CN(C)CCN)cc1Cl [Compound 126]	1.23 µM	–	–	–
0.0461 µM	COc1cc(Cl)cc(-c2n[nH]cc2CN(C)CCN)c1 [Compound 127]	7.01 µM	–	–	–
0.121 µM	Cc1c(F)cccc1-c1n[nH]cc1CN(C)CCN [Compound 129]	7.38 µM	–	–	–
0.135 µM	COc1cccc(-c2n[nH]cc2CN(C)CCN)c1 [Compound 130]	3.92 µM	–	–	–
0.0296 µM	Cc1cccc(-c2n[nH]cc2CN(C)CCN)c1 [Compound 131]	2.56 µM	–	–	–
0.0248 µM	Cc1cc(Cl)ccc1-c1n[nH]cc1CN(C)CCN [Compound 133]	2.91 µM	–	–	–
0.0108 µM	COc1ccc(-c2n[nH]cc2CN(C)CCN)cc1F [Compound 134]	1.09 µM	–	–	–
0.0481 µM	CN(CCN)Cc1c[nH]nc1-c1ccc(C(F)(F)F)cc1Cl [Compound 135]	8.05 µM	–	–	–
0.0275 µM	CCNC(=O)c1ccc(-c2n[nH]cc2CN(C)CCN)cc1 [Compound 136]	> 20 µM	–	–	–
0.0192 µM	CN(CCN)Cc1c[nH]nc1-c1cc(Cl)cc(Cl)c1 [Compound 137]	4.18 µM	–	–	–
0.0212 µM	CN(CCN)Cc1n[nH]cc1-c1ccc(OC(F)F)cc1 [Compound 138]	2.28 µM	–	–	–
0.399 µM	CN(CCN)Cc1c[nH]nc1-c1ccccc1C#N [Compound 140]	> 20 µM	–	–	–
0.00816 µM	CN(CCN)Cc1c[nH]nc1-c1ccc(C(F)(F)F)c(F)c1 [Compound 141]	0.583 µM	–	–	–
0.0297 µM	COc1cc(-c2n[nH]cc2CN(C)CCN)ccc1F [Compound 142]	2.1 µM	–	–	–
0.116 µM	CCN(CC)C(=O)c1ccc(-c2n[nH]cc2CN(C)CCN)cc1 [Compound 143]	> 20 µM	–	–	–
0.00579 µM	CC(C)Oc1ccc(-c2c[nH]nc2CN(C)CCN)cc1F [Compound 144]	0.284 µM	–	–	–

Reference: patent publication US9776972B2, “Pyrazole derivatives as arginine methyltransferase inhibitors and uses thereof” (priority 2013, dated 2017)
